Measurements from patent US20020086861A1, “Fused 1,2,4- thiadiazine derivatives, their preparation and use” (priority 1998, published 2002).

What was measured:
obese Zucker rats = settings: cited from earlier work
BB-rats = settings: cited from earlier work
[1] = target: T1, KATP-channels on pancreatic beta-cells (Homo sapiens, UniProt Q09428); settings: by an activation of KATP-channels on pancreatic beta-cells; cited from earlier work
T1 construct: host or cells: pancreatic beta-cells
T1 sequence (Q09428 whole entry): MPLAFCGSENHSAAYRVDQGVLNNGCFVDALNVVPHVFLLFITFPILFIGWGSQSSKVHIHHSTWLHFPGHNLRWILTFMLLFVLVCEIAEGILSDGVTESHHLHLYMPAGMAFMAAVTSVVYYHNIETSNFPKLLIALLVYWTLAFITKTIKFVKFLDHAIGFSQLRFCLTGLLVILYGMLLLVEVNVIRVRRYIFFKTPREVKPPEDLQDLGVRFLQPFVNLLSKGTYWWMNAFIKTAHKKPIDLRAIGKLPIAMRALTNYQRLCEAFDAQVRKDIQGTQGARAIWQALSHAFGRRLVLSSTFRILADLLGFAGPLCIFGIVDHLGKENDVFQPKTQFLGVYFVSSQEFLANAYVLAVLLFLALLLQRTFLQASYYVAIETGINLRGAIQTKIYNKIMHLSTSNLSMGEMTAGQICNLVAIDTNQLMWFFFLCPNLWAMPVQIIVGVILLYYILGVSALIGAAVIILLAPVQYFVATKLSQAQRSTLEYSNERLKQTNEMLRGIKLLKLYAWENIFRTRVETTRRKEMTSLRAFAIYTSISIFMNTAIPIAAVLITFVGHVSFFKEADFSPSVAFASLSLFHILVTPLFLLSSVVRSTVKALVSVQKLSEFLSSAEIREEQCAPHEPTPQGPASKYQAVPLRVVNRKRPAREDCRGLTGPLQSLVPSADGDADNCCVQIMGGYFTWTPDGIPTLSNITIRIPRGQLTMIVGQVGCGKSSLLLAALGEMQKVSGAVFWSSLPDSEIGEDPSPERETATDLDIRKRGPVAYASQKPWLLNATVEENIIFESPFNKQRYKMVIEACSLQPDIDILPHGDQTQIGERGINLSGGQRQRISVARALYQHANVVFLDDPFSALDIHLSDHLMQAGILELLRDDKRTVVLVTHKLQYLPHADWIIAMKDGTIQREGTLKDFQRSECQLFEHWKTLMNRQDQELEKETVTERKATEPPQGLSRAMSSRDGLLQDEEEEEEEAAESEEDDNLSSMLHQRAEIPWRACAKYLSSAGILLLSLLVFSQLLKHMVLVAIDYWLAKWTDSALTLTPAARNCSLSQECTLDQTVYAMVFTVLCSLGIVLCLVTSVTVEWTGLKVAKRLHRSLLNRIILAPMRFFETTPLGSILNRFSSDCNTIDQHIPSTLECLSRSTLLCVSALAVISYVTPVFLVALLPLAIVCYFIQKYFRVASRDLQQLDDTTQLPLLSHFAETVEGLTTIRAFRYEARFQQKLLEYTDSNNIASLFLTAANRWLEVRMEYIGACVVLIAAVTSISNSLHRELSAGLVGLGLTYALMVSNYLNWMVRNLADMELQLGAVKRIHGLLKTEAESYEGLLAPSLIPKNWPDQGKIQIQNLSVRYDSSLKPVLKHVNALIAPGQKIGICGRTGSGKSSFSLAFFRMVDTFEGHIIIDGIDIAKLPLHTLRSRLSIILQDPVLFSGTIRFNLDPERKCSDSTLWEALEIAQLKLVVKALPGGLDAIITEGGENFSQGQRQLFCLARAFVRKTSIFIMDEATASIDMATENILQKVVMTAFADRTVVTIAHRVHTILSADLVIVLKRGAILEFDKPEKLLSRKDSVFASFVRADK
T1 sequence (Q14654 whole entry partner): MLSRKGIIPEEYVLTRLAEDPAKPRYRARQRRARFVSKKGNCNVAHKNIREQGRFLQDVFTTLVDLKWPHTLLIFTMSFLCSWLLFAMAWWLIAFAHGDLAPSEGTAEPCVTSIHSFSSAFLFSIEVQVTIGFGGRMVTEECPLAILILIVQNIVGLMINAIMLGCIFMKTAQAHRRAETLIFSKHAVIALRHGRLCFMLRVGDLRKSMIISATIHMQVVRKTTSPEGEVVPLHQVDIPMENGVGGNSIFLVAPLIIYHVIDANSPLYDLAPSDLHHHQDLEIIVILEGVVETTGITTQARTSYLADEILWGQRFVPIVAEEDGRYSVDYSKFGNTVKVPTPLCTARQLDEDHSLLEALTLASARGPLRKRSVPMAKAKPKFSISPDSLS

For `CC(C)(CO)NC1=NS(=O)(=O)c2sc(Cl)cc2N1` [Example 4, 6-Chloro-3-(2-hydroxy-1,1-dimethylethylamino)-4H-thieno[3,2-e]-1,2,4-thiadiazine 1,1-dioxide], the melting point was 224 to 226 °C.

`O=S1(=O)N=C(NC23CC4CC(CC(C4)C2)C3)Nc2cc(Cl)sc21` [Example 6, 3-(1-Adamantyl)amino-6-chloro-4H-thieno[3,2-e]-1,2,4-thiadiazine 1,1-dioxide] gave a melting point of 339 to 340 °C.

With `O=S1(=O)N=C(NC2(CO)CCCC2)Nc2cc(Cl)sc21` [Example 9, 6-Chloro-3-(1-hydroxymethylcyclopentyl)amino-4H-thieno[3,2-e]-1,2,4-thiadiazine 1,1-dioxide] the melting point was 213 to 214 °C.

With `CC(C)(NC1=NS(=O)(=O)c2sc(Cl)cc2N1)c1ccccc1` [Example 10, 6-Chloro-3-(1-methyl-1-phenylethyl)amino-4H-thieno[3,2-e]-1,2,4-thiadiazine 1,1-dioxide] the melting point was ~ 360 °C (dec.).

Molecule `CC1(NC2=NS(=O)(=O)c3sc(Cl)cc3N2)CCC1` [Example 13, 6-Chloro-3-(1-methylcyclobutyl)amino-4H-thieno[3,2-e]-1,2,4-thiadiazine 1,1-dioxide] has a melting point of 294 to 296 °C.

For `CC1=Nc2ccc(Cl)cc2S(=O)(=O)N1` [diazoxide, 7-chloro-3-methyl-2H-1,2,4-benzothiadiazine 1,1-dioxide], the glucose tolerance (obese Zucker rats) is listed as “improve glucose tolerance”, the insulin receptor binding (obese Zucker rats) is listed as “increase insulin receptor binding” and the insulin secretion (obese Zucker rats) is listed as “decrease insulin secretion”. For the same molecule, the weight gain (obese Zucker rats) was “decrease weight gain”, the onset of diabetes (BB-rats) was “delay the onset of diabetes” and the insulin release [1] was “inhibit insulin release”.
